# From patent US12492193B2, “Pyrazole derivatives for the treatment of cystic fibrosis” (Fondazione Istituto Italiano Di Tecnologia, priority 2017, dated 2025)
# Biological target: T1, mutant CFTR (Homo sapiens, UniProt P13569, DEL508-508)
# T1 construct: expressed in transfected cells
# Assay: Fluorescence (HS-YFP) assay for CFTR activity, corrector assay
# Type: cell-based
# Details: CFBE41o- and FRT cells with stable expression of mutant CFTR, 24 h compound treatment
# Experimental: Fluorescence Assay for CFTR Activity
# Mutant CFTR activity was determined with the functional assay based on the halide-sensitive yellow fluorescent protein, HS-YFP (Galietta et al., FEBS Lett 499: 220-224, 2001). CFBE41o- and FRT cells with stable expression of mutant CFTR and HS-YFP were plated on clear-bottom 96-well black microplates (Code 3603, Corning Life Sciences) at a density of 50,000 cells/well and kept at 37° C. in 5% CO2 for 24 hours. For the corrector assay, cells were treated for further 24 hours with test compounds, vehicle (DMSO), or the positive control VX-809. After treatment, the culture medium was removed and cells in each well were stimulated for 30 min at 37° C. with 60 μL PBS (containing 137 mM NaCl, 2.7 mM KCl, 8.1 mM Na2HPO4, 1.5 mM KH2PO4, 1 mM CaCl2, and 0.5 mM MgCl2) plus forskolin (20 μM) and genistein (50 μM).
# For determination of potentiator activity on G551D-CFTR or G1349D-CFTR, cells were directly stimulated with forskolin plus test compound without previous incubation at low temperature. At the time of assay, microplates carrying CFBE41o- or FRT cells were transferred to microplate readers (BMG Labtech) equipped with high-quality excitation (HQ500/20X: 500±10 nm) and emission (HQ535/30M: 535±15 nm) filters for YFP (Chroma Technology). The assay consisted of a continuous 14 s fluorescence reading with 2 s before and 12 s after injection of an iodide-containing solution (165 μL of a modified PBS containing I^− instead of Cl^−; final I^− concentration in the well: 100 mM). Data were normalized to the initial background-subtracted fluorescence. Enhanced CFTR activity, induced by correctors and/or potentiators, results in accelerated I^− influx that in turn causes faster HS-YFP quenching (Pedemonte et al., Mol Pharmacol 68:1736-1746, 2005; Pedemonte et al., J Clin Invest 115:2564-2571, […]). To determine fluorescence quenching rate associated with I^− influx, the […] 10 s of data for each well were fitted with an exponential function to extrapolate initial slope (dF/dt).
# EC50 obtained are illustrated in table 1 wherein +: EC50>2 μM; ++: 1.0 μM<EC50<2 μM; +++: EC50<1 μM.
# T1 sequence (P13569 with tags, fused parts or gaps DEL508-508): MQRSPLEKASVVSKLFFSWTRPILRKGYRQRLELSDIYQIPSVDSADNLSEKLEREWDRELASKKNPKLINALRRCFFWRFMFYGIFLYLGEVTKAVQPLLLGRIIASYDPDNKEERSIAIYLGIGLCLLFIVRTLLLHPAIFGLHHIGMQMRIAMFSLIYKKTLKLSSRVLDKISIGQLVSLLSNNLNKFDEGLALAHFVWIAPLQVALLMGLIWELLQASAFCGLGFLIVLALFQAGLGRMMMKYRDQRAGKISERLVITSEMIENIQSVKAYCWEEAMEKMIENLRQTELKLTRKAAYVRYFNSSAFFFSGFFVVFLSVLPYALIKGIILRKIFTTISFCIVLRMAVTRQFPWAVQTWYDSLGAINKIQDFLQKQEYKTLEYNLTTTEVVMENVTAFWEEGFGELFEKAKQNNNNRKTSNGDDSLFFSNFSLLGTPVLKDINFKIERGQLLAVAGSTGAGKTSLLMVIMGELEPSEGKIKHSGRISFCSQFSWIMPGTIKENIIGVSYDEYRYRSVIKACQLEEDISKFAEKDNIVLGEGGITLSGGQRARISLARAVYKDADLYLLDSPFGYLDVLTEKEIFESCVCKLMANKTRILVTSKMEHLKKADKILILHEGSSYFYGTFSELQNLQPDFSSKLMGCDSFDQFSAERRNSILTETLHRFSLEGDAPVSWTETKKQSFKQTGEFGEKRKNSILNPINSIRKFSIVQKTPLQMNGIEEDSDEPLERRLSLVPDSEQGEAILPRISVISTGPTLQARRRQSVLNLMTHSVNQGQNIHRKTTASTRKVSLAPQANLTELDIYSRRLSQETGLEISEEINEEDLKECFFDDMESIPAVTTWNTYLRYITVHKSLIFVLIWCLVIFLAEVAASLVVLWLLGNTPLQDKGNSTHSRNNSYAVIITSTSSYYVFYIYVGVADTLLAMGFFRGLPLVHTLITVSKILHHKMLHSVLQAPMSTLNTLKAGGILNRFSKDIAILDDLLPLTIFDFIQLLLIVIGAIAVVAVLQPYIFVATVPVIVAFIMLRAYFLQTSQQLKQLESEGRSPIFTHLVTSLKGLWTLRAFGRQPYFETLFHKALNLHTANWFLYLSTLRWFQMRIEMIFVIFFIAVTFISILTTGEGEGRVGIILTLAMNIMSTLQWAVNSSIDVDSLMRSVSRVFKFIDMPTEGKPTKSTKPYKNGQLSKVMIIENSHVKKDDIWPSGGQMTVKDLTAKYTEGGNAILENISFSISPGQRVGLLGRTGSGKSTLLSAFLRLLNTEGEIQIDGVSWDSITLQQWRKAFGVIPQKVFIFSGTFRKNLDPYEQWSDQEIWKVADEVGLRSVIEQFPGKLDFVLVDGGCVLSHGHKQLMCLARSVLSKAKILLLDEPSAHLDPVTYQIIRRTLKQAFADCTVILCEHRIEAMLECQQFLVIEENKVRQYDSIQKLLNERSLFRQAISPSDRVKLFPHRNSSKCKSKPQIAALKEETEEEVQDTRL
smiles,measurement,value
"COc1nc2cc(N(C)C(=O)c3cccc(-n4nc(C)c(Cl)c4C)c3)ccc2o1 [compound 064, 3-(4-Chloro-3,5-dimethyl-pyrazol-1-yl)-N-(2-methoxy-1,3-benzoxazol-5-yl)-N-methyl-benzamide]",EC50,> 2000 nM
"Cc1nc2ccc(N(C)C(=O)c3cccc(-n4nc(C(F)(F)F)c(Cl)c4OCc4ccc(C(=O)O)cc4)c3)cc2o1 [compound 198, 4-[[4-Chloro-2-[3-[methyl-(2-methyl-1,3-benzoxazol-6-yl)carbamoyl]phenyl]-5-(trifluoromethyl)pyrazol-3-yl]oxymethyl]benzoic acid]",EC50,< 1000 nM
"Cc1c(Cl)c(C(F)(F)F)nn1-c1cc(C(=O)N(C)c2ccc3c(c2)OCO3)ccn1 [compound 171, N-(1,3-Benzodioxol-5-yl)-2-[4-chloro-5-methyl-3-(trifluoromethyl)pyrazol-1-yl]-N-methyl-pyridine-4-carboxamide]",EC50,< 1000 nM
"CC(C)Oc1c(Cl)c(C(F)(F)F)nn1-c1cccc(C(=O)N(C)c2ccc3c(c2)OCO3)c1 [compound 142, N-(1,3-Benzodioxol-5-yl)-3-[4-chloro-5-isopropoxy-3-(trifluoromethyl)pyrazol-1-yl]-N-methyl-benzamide]",EC50,< 1000 nM
"Cc1nc2ncc(N(C)C(=O)c3cccc(-n4nc(C(F)(F)F)c(Cl)c4C)c3)cc2o1 [compound 261, 3-[4-Chloro-5-methyl-3-(trifluoromethyl)pyrazol-1-yl]-N-methyl-N-(2-methyloxazolo[4,5-b]pyridin-6-yl)benzamide]",EC50,1000 to 2000 nM
"CN(C(=O)c1cccc(-n2nc(C(F)(F)F)cc2OCc2ccccc2)c1)c1ccc2c(c1)OCO2 [compound 132, N-(1,3-benzodioxol-5-yl)-3-[5-benzyloxy-3-(trifluoromethyl)pyrazol-1-yl]-N-methyl-benzamide]",EC50,< 1000 nM
"Cc1nc2cc(N(C)C(=O)c3cccc(-n4nc(C)c(Cl)c4C)c3)ccc2o1 [compound 025, 3-(4-Chloro-3,5-dimethyl-pyrazol-1-yl)-N-methyl-N-(2-methyl-1,3-benzoxazol-5-yl)benzamide]",EC50,> 2000 nM
"Cc1nc2ccc(N(C)C(=O)c3cccc(-n4nc(C)c(Cl)c4C)c3)cc2o1 [compound 047, 3-(4-Chloro-3,5-dimethyl-pyrazol-1-yl)-N-methyl-N-(2-methyl-1,3-benzoxazol-6-yl)benzamide]",EC50,< 1000 nM
"CCOC(=O)c1nn(-c2cccc(C(=O)N(C)c3ccc4c(c3)OCO4)c2)c(C)c1Cl [compound 067, Ethyl 1-[3-[1,3-benzodioxol-5-yl(methyl)carbamoyl]phenyl]-4-chloro-5-methyl-pyrazole-3-carboxylate]",EC50,> 2000 nM
"Cc1nc2ccc(NC(=O)c3cccc(-n4nc(C(F)(F)F)c(Cl)c4C4CC4)c3)cc2o1 [Int-136, 3-[4-Chloro-5-cyclopropyl-3-(trifluoromethyl)pyrazol-1-yl]-N-(2-methyl-1,3-benzoxazol-6-yl)benzamide]",EC50,< 1000 nM
"Cc1c(Cl)c(C(F)(F)F)nn1-c1cccc(C(=O)N(C)c2ccc3c(c2C=O)OCO3)c1 [compound 207, 3-[4-chloro-5-methyl-3-(trifluoromethyl)pyrazol-1-yl]-N-(4-formyl-1,3-benzodioxol-5-yl)-N-methyl-benzamide]",EC50,> 2000 nM
"O=C(Nc1ccc2c(c1)OCO2)c1cccc(-n2nc(C(F)(F)F)c(Cl)c2C2CC2)c1 [compound 165, N-(1,3-Benzodioxol-5-yl)-3-[4-chloro-5-cyclopropyl-3-(trifluoromethyl)pyrazol-1-yl]benzamide]",EC50,> 2000 nM
"CCOC(=O)c1nn(-c2cccc(C(=O)N(C)c3ccc4c(c3)OCO4)c2)c(C(C)C)c1Cl [compound 086, Ethyl 1-[3-[1,3-benzodioxol-5-yl(methyl)carbamoyl]phenyl]-4-chloro-5-isopropyl-pyrazole-3-carboxylate]",EC50,> 2000 nM
"Cc1c(Cl)c(C(N)=O)nn1-c1cccc(C(=O)N(C)c2ccc3c(c2)OCO3)c1 [compound 074, 1-[3-[1,3-Benzodioxol-5-yl(methyl)carbamoyl]phenyl]-4-chloro-5-methyl-pyrazole-3-carboxamide]",EC50,> 2000 nM
"CCc1cc(CC)n(-c2cccc(C(=O)N(C)c3ccc4c(c3)OCO4)c2)n1 [compound 093, N-(1,3-Benzodioxol-5-yl)-3-(3,5-diethylpyrazol-1-yl)-N-methyl-benzamide]",EC50,1000 to 2000 nM
"Cc1nc2ccc(N(C)C(=O)c3cccc(-n4nc(C(F)(F)F)cc4OCc4ccc(C(=O)OC(C)(C)C)cc4)c3)cc2o1 [compound 188, Tert-butyl 4-[[2-[3-[methyl-(2-methyl-1,3-benzoxazol-6-yl)carbamoyl]phenyl]-5-(trifluoromethyl)pyrazol-3-yl]oxymethyl]benzoate]",EC50,< 1000 nM
"Cc1nc2ccc(N(C)C(=O)c3cccc(-n4nc(C(F)(F)F)c(Cl)c4COc4ccc(C(=O)O)cc4)c3)cn2n1 [compound 236, 4-[[4-Chloro-2-[3-[methyl-(2-methyl-[1,2,4]triazolo[1,5-a]pyridin-6-yl)carbamoyl]phenyl]-5-(trifluoromethyl)pyrazol-3-yl]methoxy]benzoic acid]",EC50,< 1000 nM
"CCN(C(=O)c1cccc(-n2nc(C)c(Cl)c2C)c1)c1ccc2c(c1)OCCO2 [compound 004, 3-(4-Chloro-3,5-dimethyl-pyrazol-1-yl)-N-(2,3-dihydro-1,4-benzodioxin-6-yl)-N-ethyl-benzamide]",EC50,< 1000 nM
"Cc1nn(-c2cccc(C(=O)Nc3ccc4c(c3)OCCO4)c2)c(C)c1Cl [Int-002, 3-(4-Chloro-3,5-dimethyl-pyrazol-1-yl)-N-(2,3-dihydro-1,4-benzodioxin-6-yl)benzamide]",EC50,> 2000 nM
"CN(C(=O)c1cccc(-n2nc(-c3ccccn3)cc2C(F)(F)F)c1)c1ccc2c(c1)OCO2 [compound 192, N-(1,3-benzodioxol-5-yl)-N-methyl-3-[3-(2-pyridyl)-5-(trifluoromethyl)pyrazol-1-yl]benzamide]",EC50,1000 to 2000 nM
"Cc1c(Cl)c(C(F)(F)F)nn1-c1cccc(C(=O)Nc2cc3c(cc2C#N)OCO3)c1 [compound 162, 3-[4-chloro-5-methyl-3-(trifluoromethyl)pyrazol-1-yl]-N-(6-cyano-1,3-benzodioxol-5-yl)benzamide]",EC50,> 2000 nM
"CN(C(=O)c1cccc(-n2nc(C(F)(F)F)c(Cl)c2OCc2ccccc2)c1)c1ccc2c(c1)OCO2 [compound 134, N-(1,3-Benzodioxol-5-yl)-3-[5-benzyloxy-4-chloro-3-(trifluoromethyl)pyrazol-1-yl]-N-methyl-benzamide]",EC50,< 1000 nM
"Cc1c(Cl)c(CO)nn1-c1cccc(C(=O)N(C)c2ccc3c(c2)OCO3)c1 [compound 073, N-(1,3-Benzodioxol-5-yl)-3-[4-chloro-3-(hydroxylmethyl)-5-methyl-pyrazol-1-yl]-N-methyl-benzamide]",EC50,> 2000 nM
"Cc1nn(-c2cccc(C(=O)Nc3ccc4c(c3)OC(F)(F)C(F)(F)O4)c2)c(C)c1Cl [Int-005, 3-(4-Chloro-3,5-dimethyl-pyrazol-1-yl)-N-(2,2,3,3-tetrafluoro-1,4-benzodioxin-6-yl)benzamide]",EC50,> 2000 nM
"COC(=O)c1ccc(COc2cc(C(F)(F)F)nn2-c2cccc(C(=O)N(C)c3ccc4c(c3)OCO4)c2)cc1 [compound 152, Methyl-4-[[2-[3-[1,3-benzodioxol-5-yl(methyl)carbamoyl]phenyl]-5-(trifluoromethyl)pyrazol-3-yl]oxymethyl]benzoate]",EC50,< 1000 nM
"Cc1nn(-c2cccc(C(=O)N(C)c3ccc4c(c3)OCO4)c2)c(C)c1C#N [compound 081, N-(1,3-Benzodioxol-5-yl)-3-(4-cyano-3,5-dimethyl-pyrazol-1-yl)-N-methyl-benzamide]",EC50,> 2000 nM
Cc1nn(-c2cccc(C(=O)N(C)c3ccc4c(c3)COC4)c2)c(C)c1Cl [compound 057],EC50,1000 to 2000 nM
"CCOC(=O)c1c(Cl)c(C(C)C)nn1-c1cccc(C(=O)N(C)c2ccc3c(c2)OCO3)c1 [compound 087, Ethyl 2-[3-[1,3-benzodioxol-5-yl(methyl)carbamoyl]phenyl]-4-chloro-5-isopropyl-pyrazole-3-carboxylate]",EC50,< 1000 nM
"Cc1c(Cl)c(C(F)(F)F)nn1-c1cccc(C(=O)Nc2ccc3cn(C)nc3c2)c1 [Int-121, 3-[4-Chloro-5-methyl-3-(trifluoromethyl)pyrazol-1-yl]-N-(2-methylindazol-6-yl)benzamide]",EC50,> 2000 nM
"Cc1nn(-c2cccc(S(=O)(=O)N(C)c3ccc4c(c3)OCCO4)c2)c(C)c1Cl [compound 020, 3-(4-chloro-3,5-dimethyl-pyrazol-1-yl)-N-(2,3-dihydro-1,4-benzodioxin-6-yl)-N-methyl-benzenesulfonamide]",EC50,1000 to 2000 nM
